Results published in patent US5216001A, “Indole derivatives” (H. Lunbeck A/S, priority 1990, dated 1993).
Like-named read-outs stand apart in the source and are kept apart here.

Key:
[1] = biological target: T1, dopamine D-2 receptors (Rattus norvegicus, UniProt P61169); experiment: inhibition of 3H-spiperone binding to dopamine D-2 receptors in rat corpus striatum in vitro
T1 construct: striatal tissue is dissected and weighed; from tissue; host or cells: corpus striatum membranes of male Wistar rats
T1 sequence (P61169 whole entry): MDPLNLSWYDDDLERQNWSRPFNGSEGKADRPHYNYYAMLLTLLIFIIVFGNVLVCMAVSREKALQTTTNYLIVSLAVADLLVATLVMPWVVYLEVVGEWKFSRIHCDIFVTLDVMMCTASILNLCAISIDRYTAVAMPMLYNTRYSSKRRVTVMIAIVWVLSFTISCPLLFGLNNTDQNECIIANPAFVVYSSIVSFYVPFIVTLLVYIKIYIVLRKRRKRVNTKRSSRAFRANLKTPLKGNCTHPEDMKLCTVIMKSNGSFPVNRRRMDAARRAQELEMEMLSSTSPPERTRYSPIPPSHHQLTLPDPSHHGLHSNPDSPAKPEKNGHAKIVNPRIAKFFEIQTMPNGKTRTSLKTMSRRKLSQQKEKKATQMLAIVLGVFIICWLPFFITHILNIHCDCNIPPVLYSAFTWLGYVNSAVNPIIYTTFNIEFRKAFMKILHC
Description: INHIBITION OF ^3 H-SPIPERONE BINDING TO DOPAMINE D-2 RECEPTORS IN RAT CORPUS STRIATUM IN VITRO
By this method the inhibition by drugs of the binding of ^3 H-spiperone (0.5 nM) to dopamine D-2 receptors in membranes from rat corpus striatum is determined in vitro. Method and results in Hyttel and Larsen, J. Neurochem, 44, 1615-1622, 1985).
(§1) Male Wistar (Mol:Wistar) rats (125-250 g) are sacrificed and striatal tissue is dissected and weighed. The tissue is homogenized (Ultra Turrax, 10 sec.) in 10 ml of ice-cold 50 mM K-phosphate buffer pH 7.4 (at 25° C.). The homogenate is centrifuged twice at 20,000 g for 10 min. at 4° C. with rehomogenization of the pellet in 10 ml ice-cold buffer. The final pellet is homogenized in 1300 vol (w/v) ice-cold buffer.
Incubation tubes kept on ice in triplicate receive 100 μl of drug solution in water (or water for total binding) and 4000 μl of tissue suspension (final tissue content corresponds to 3.08 mg original tissue). The binding experimental is initiated by addition of 100 μl of ^3 H-spiperone (final concentration 0.5 nM) and by placing the tubes in a 37° C. water bath. After incubation for 10 min. the samples are filtered under vacuum (0-50 mBar) through Whatman GF/F filters (25 mm). The tubes are rinsed with 5 ml ice-cold buffer which are then poured on the filters. Thereafter, the filters are washed with 2×5 ml of buffer. The filters are placed in counting vials and 4 ml of appropriate scintillation fluid (e.g. Picofluor ™15) are added. After shaking for 1 h and storage 2 hrs in the dark the content of radioactivity is determined by liquid scintillation counting. Specific binding is obtained by subtracting the nonspecific binding in the presence of 10 μM of 6,7-ADTN.
(§2) For determination of the inhibition of binding five concentrations of drugs covering 3 decades are used.
England, specific activity 15-25 Ci/mmol.

[2] = biological target: α1 adrenoceptors; experiment: inhibition of 3H-prazosin binding to α1 adrenoceptors in rat brain in vitro; conditions: 3H-prazosin 0.25 nM, rat brain membranes, read-out: Binding IC50, 3H Praz.
Description: INHIBITION OF ^3 H-PRAZOSIN BINDING TO α1 ADRENOCEPTORS IN RAT BRAIN IN VITRO
Method and results in Hyttel and Larsen, J. Neurochem, 44, 1615-1622, 1985; Skarsfeldt and Hyttel, Eur. J. Pharmacol. 125, 323-340, 1986.
as §1, with “(Mol:Wist)” for “(Mol:Wistar)”, “(125-200” for “(125-250”, “brain” for “striatal”, “[…] Tris” for “mM K-phosphate”, “7.7” for “7.4”, “400” for “1300”
Incubation tubes kept on ice in triplicate receive 100 μl of drug solution in water (or water for total binding) and 4000 μl of tissue suspension (final tissue content corresponds to 10 mg original tissue). The binding experiment is initiated by addition of 100 μl of ^3 H-Prazosin (final concentration 0.25 nM) and by placing the tubes in a 25° C. water bath. After incubation for 20 min. the samples are filtered under vacuum (0-50 mBar) through Whatman GF/F filters (25 mm). The tubes are rinsed with 5 ml ice-cold buffer which then are poured on the filters. Thereafter, the filters are washed with 5 ml of buffer. The filters are placed in counting vials and 4 ml of appropriate scintillation fluid (e.g. Picofluor™15) are added. After shaking for 1 h and storage 2 hrs in the dark the content of radioactivity is determined by liquid scintillation counting. Specific binding is obtained by subtracting the nonspecific binding in the presence of 1 μM of Prazosin.
as §2
The measured cpm are plotted against drug concentration on semilogarithmic paper and the best fitting S-shaped curve is drawn. The IC50 value is determined as the concentration at which the binding is 50% of the total binding in control samples minus the nonspecific binding in the presence of 1 μM of Prazosin. ^3 H-Prazosin=[furoyl-5-^3 H]-Prazosin from New England Nuclear, specific activity approximately 20 Ci/mmol.

[3] = biological target: T2, serotonin S2 (5-HT2) receptors (Rattus norvegicus, UniProt P14842); experiment: inhibition of 3H-ketanserin binding to serotonin S2 (5-HT2) receptors in rat cortex in vitro; conditions: 3H-ketanserin 0.5 nM, rat cortex membranes, read-out: Binding IC50, 3H Ket.
T2 construct: cortical tissue is dissected and weighed; from tissue; host or cells: cerebral cortex membranes of male Wistar (Mol:Wist) rats
T2 sequence (P14842 whole entry): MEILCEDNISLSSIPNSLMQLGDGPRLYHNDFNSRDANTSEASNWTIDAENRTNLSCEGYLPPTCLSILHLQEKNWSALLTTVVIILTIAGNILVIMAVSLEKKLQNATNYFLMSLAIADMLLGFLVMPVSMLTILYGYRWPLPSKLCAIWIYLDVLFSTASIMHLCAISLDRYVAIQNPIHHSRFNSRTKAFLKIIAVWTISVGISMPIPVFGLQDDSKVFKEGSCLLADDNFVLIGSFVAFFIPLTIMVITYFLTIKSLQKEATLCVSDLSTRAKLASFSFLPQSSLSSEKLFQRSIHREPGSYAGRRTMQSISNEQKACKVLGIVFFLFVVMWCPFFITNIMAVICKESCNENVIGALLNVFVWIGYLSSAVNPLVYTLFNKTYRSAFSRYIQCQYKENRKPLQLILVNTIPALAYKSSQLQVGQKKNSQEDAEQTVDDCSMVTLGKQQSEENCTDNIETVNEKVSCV
Description: Method in Hyttel, Pharmacology & Toxicology, 61, 126-129. 1987.
Male Wistar (Mol:Wist) rats (125-250 g) are sacrifices and cortical tissue is dissected and weighed. The tissue is homogenized (Ultra Turrax, 10 sec.) in 10 ml of ice-cold 50 mM tris buffer pH 7.7 (at 25° C.). The centrifuge glassware used in this step has been rinsed by sonication for 10 min. in ethanol. The homogenate is centrifuged twice at 20,000 g for 10 min. at 4° C. with rehomogenization of the pellet in 10 ml ice-cold buffer. The final pellet is homogenized in 500 vol (w/v) ice-cold buffer.
Incubation tubes kept on ice in triplicate receive 100 μl of drug solution in water (or water for total binding) and 2000 μl of tissue suspension (final tissue content corresponds to 4 mg original tissue). […] After incubation for 30 min. the samples are filtered under vacuum (0-50 mBar) through Whatman GF/F filters (25 mm). The tubes are rinsed with 5 ml ice-cold buffer which are then poured on the filters. Thereafter, the filters are washed with 2×5 ml of buffer. The filters are placed in counting vials and 4 ml of appropriate scintillation fluid (e.g., Picofluor™15) are added. After shaking for 1 h and storage 2 hrs in the dark the content of radioactivity is determined by liquid scintillation counting. Specific binding is obtained by subtracting the nonspecific binding in the presence of 1 μM mianserin. For determination of the inhibition of binding five concentrations of drugs covering 3 decades are used.
The IC50 value is determined as the concentration at which the binding is 50% of the total binding in control samples minus the nonspecific binding in the presence of 1 μM mianserin.

[4] = 3H-spiperone 0.5 nM, rat corpus striatum membranes, in vitro, read-out: Binding IC50, 3H Spi.

Compound	IC50 [1]	IC50 [2]	IC50 [3]	IC50 [1, 4]
CC(C)N1CCN(CCN2CC=C(c3cn(-c4ccc(F)cc4)c4cc(Cl)ccc34)CC2)C1=O [Compound 2a, 6-chloro-1-(4-fluorophenyl)-3-[1-[2-[3-(2-propyl)-2-imidazolidinon-1-yl]ethyl]-1,2,3,6-tetrahydropyridin-4-yl]-1H-indole]	0.066 µM	0.055 µM	0.0035 µM	–
CC(C)N1CCN(CCN2CCC(c3cn(-c4ccc(F)cc4)c4cc(C(F)(F)F)ccc34)CC2)C1=O [Compound 4c, 1-(4-fluorophenyl)-3-[1-[2-[3-(2-propyl)-2-imidazolidinon-1-yl]ethyl]-4-piperidyl]-6-trifluoromethyl-1H-indole]	–	0.091 µM	0.0029 µM	0.28 µM
O=C1CCCN1CCN1CCC(c2cn(-c3ccc(F)cc3)c3cc(C(F)(F)F)ccc23)CC1 [Compound 4e, 1-(4-fluorophenyl)-3-[1-[2-(2-pyrrolidinon-1-yl)ethyl]-4-piperidyl]-6-trifluoromethyl-1H-indole]	–	0.049 µM	0.0028 µM	0.3 µM
COc1ccc2c(C3CCN(CCN4CCN(C(C)C)C4=O)CC3)cn(-c3ccc(F)cc3)c2c1 [Compound 4i, 1-(4-fluorophenyl)-6-methyoxy-3-[1-[2-[3-(2-propyl)-2-imidazolidinon-1-yl]ethyl]-4-piperidyl]-1H-indole]	–	0.14 µM	0.0071 µM	0.71 µM
CC(C)c1ccc2c(C3CCN(CCN4CCN(C(C)C)C4=O)CC3)cn(-c3ccc(F)cc3)c2c1 [Compound 5c, 1-(4-fluorophenyl)-6-(2-propyl)-3-[1-[2-[3-(2-propyl)-2-imidazolidinon-1-yl]ethyl]-4-piperidyl]-1H-indole]	–	0.73 µM	0.016 µM	2 µM
CC(C)N1CCN(CCN2CCC(c3cn(-c4ccc(F)cc4)c4cc(C#N)ccc34)CC2)C1=O [Compound 5i, 6-cyano-1-(4-fluorophenyl)-3-[1-[2-[3-(2-propyl)-2-imidazolidinon-1-yl]ethyl]-4-piperidyl]-1H-indole]	–	–	0.0086 µM	1.1 µM
N#Cc1ccc2c(C3CCN(CCN4CCNC4=O)CC3)cn(-c3ccc(F)cc3)c2c1 [Compound 5j, 6-cyano-1-(4-fluorophenyl)-3-[1-[2-(2-imidazolidinon-1-yl)ethyl]-4-piperidyl]-1H-indole]	–	–	0.013 µM	1.5 µM
CC(C)N1CCN(CCN2CCN(c3cn(-c4ccc(F)cc4)c4cc(Cl)ccc34)CC2)C1=O [Compound 6a, 6-chloro-1-(4-fluorophenyl)-3-[4-[2-[3-(2-propyl)-2-imidazolidinon-1-yl]ethyl]-1-piperazinyl]-1H-indole]	–	–	0.0027 µM	0.081 µM
Cc1ccc2c(C3CCN(CCNC(=O)NC(C)C)CC3)cn(-c3ccc(F)cc3)c2c1 [Compound 9a, 1-(4-fluorophenyl)-3-[1-[2-[3-(2-propyl)-1-ureido]-1-ethyl]-4-piperidyl]-6-methyl-1H-indole]	–	0.076 µM	0.0018 µM	0.3 µM
CCN(CCN1CCC(c2cn(-c3ccc(F)cc3)c3cc(Cl)ccc23)CC1)C(=O)NC(C)C [Compound 9d, 6-chloro-1-(4-fluorophenyl)-3-[1-[2-[1-ethyl-3-(2-propyl)-1-ureido]-1-ethyl]-4-piperidyl]-1H-indole]	–	–	0.0019 µM	0.15 µM
CC(C)N1CCN(CCN2CCC(c3cn(-c4ccc(F)cc4)c4cc(Cl)ccc34)CC2)C1=S [Compound 13a, 6-chloro-1-(4-fluorophenyl)-3-[1-[2-[3-(2-propyl)-2-imidazolidinthion-1-yl]ethyl]-4-piperidyl]-1H-indole]	–	0.11 µM	0.0044 µM	0.27 µM
Cc1ccc2c(C3CCN(CCN4CCN(C(C)C)C4=O)CC3)cn(-c3cccs3)c2c1 [Compound 15b, 6-methyl-3-[1-[2-[3-(2-propyl)-2-imidazolidinon-1-yl]ethyl]-4-piperidyl]-1-(2-thie-nyl)-1H-indole]	–	–	0.0067 µM	2.5 µM
Cc1ccc2c(C3CCN(CCN4CCN(C(C)C)C4=O)CC3)cn(-c3ccsc3)c2c1 [Compound 15c, 6-methyl-3-[1-[2-[3-(2-propyl)-2-imidazolidinon-1-yl]ethyl]-4-piperidyl]-1-(3-thie-nyl)-1H-indole]	–	0.33 µM	0.0026 µM	1 µM
Cc1ccc2c(C3CCN(CCN4CCN(C(C)C)C4=O)CC3)cn(-c3ccoc3)c2c1 [Compound 15d, 1-(3-furanyl)-6-methyl-3-[1-[2-[3-(2-propyl)-2-imidazolidinon-1-yl]ethyl]-4-piperi-dyl]-1H-indole]	–	–	0.0093 µM	4.5 µM
Cc1ccc2c(C3CCN(CCN4CCN(C(C)C)C4=O)CC3)cn(-c3ccncc3)c2c1 [Compound 15e, 6-methyl-3-[1-[2-[3-(2-propyl)-2-imidazolidinon-1-yl]ethyl]-4-piperidyl]-1-(4-pyri-dyl)-1H-indole]	–	–	0.0076 µM	3.5 µM
Cc1ccc2c(C3CCN(CCN4CCN(C(C)C)C4=O)CC3)cn(-c3ccccc3F)c2c1 [Compound 15f, 1-(2-fluorophenyl)-3-[1-[2-[3-(2-propyl)-2-imidazolidinon-1-yl]ethyl]-4-piperidyl]-6-methyl-1H-indole]	–	0.37 µM	0.0025 µM	0.73 µM
Cc1ccc2c(C3CCN(CCN4CCN(C(C)C)C4=O)CC3)cn(-c3cccc(C(F)(F)F)c3)c2c1 [Compound 15i, 3-[1-[2-[3-(2-propyl)-2-imidazolidinon-1-yl]ethyl]-4-piperidyl]-6-methyl-1-(3-trifluoromethylphenyl)-1H-indole]	–	–	0.15 µM	3.2 µM
O=C1NCCN1CCN1CCC(c2cn(-c3ccccc3)c3cc(Cl)ccc23)CC1 [Compound 15m, 6-chloro-3-[1-[2-[2-imidazolidinon-1-yl]ethyl]-4-piperidyl]-1-phenyl-1H-indole]	–	–	0.0044 µM	0.41 µM
